Test results taken from patent publication US9958450B2, “L-glucose derivatives having fluorescent chromophore” (HIROSAKI UNIVERSITY, priority 2008, dated 2018).
Blank lines part the entries; values can stand above or below the molecule they belong to.

Legend:
[1] = tested on: acutely isolated substantia nigra pars reticulata neurons; test: Application of 2-NBDG or 2-NBDLG to acutely isolated neurons (normal fluorescence microscope); type: cell-based, mouse; conditions: 200 μM solution administered for 1 minute, 36 to 37° C., fluorescence images at 10 and 30 minutes after initiation of washing
Description: C57BL/6J mice at the age of 13 to 15 days after birth (juvenile period) or at the age of 33 to 45 days after birth (maturation period) were deeply anesthetized with urethane (i.p. 1.6 g/kg) and decapitated according to a common procedure. Thereafter, the brain was taken out from each mouse and cooled by immersion in a cold Ringer's solution^note 1) (at 0° C.) for 1 to 2 minutes, and then, coronal brain slices with a thickness of 400 μm were prepared using a microslicer (ZERO 1, Dosaka EM Co., Ltd.). […]
In a homemade perfusion chamber (Non-patent document 2) mounted on a heating-type xy stage (Zeiss Tempcontrol 37-2) of an inverted fluorescence microscope from Zeiss Axiovert 135 (100 W, a xenon light source), a 35-mm glass bottom culture dish^note 4) was placed, and a glass coverslip (neurons were placed thereon according to the method described in (A)) placed in the dish was perfused with a HEPES solution for recording at a rate of 1.3 mL/min. […]
In the fluorescence detection, a 450-490 nm standard bandpass excitation filter manufactured by Zeiss, Inc., a 510 nm dichroic mirror, and a 515-565 nm emission filter were used without using an ND filter, and as the objective lens, a Zeiss Plan Neofluar ×20 lens (NA 0.50) was used. […]

[2] = tested on: Escherichia coli K12; test: Incorporation of 2-NBDG or 2-NBDLG into Escherichia coli (evaluation for the state of Escherichia coli); type: cell-based; conditions: for difference in fluorescence detection between 2-NBDG and 2-NBDLG: dead cells prepared by treating live cells with 70% ethanol at room temperature for 10 minutes; for fluorescence due to the incorporation into the cells: live cells, 50 μM, 37° C. for 10 minutes
Description: Escherichia coli K12 was cultured with shaking overnight at 37° C. A 1 mL portion of the culture was centrifuged to collect cells, and the cells were suspended in 1 mL of phosphate buffered saline (PBS, a mixed solution of 0.01 M phosphate buffer and 0.137 M NaCl at pH 7.4). A 90 μL portion of the suspension was taken out, and 10 μL of the 2-NBDG solution or the 2-NBDLG solution was added thereto to give a final concentration of 50 μM, and then, an incorporation reaction was allowed to proceed at 37° C. for 10 minutes. After the reaction, the cells were collected by centrifugation and resuspended in PBS, and the cells were microscopically observed (objective lens ×10) and recorded using a CCD camera for microscopic observation.

[3] = Fluorescence spectrum (maximum fluorescence wavelength); type: physicochemical
Excerpt: When the case where a mixed liquid of 2-NBDG and 2-TRLG was used as the mixed liquid of a D-glucose derivative that has a fluorescent chromophore in the molecule and is specifically incorporated into cells and an L-glucose derivative that has, in the molecule, a fluorescent chromophore that emits fluorescence at a wavelength different from that of the fluorescence emitted by the D-glucose derivative that has a fluorescent chromophore in the molecule and is specifically incorporated into cells is cited as an example, the maximum fluorescence wavelength of the former is from 540 nm to 550 nm, and the maximum fluorescence wavelength of the latter is from 600 nm to 610 nm. Therefore, when the fluorescence at a wavelength in the vicinity of each of the maximum fluorescence wavelengths is detected for the solution obtained by mixing both glucose derivatives, the green fluorescence emitted by 2-NBDG and the red fluorescence emitted by 2-TRLG can be detected, respectively, and as a result of combining the both fluorescence spectra detected, yellow fluorescence can be detected. After administration of the mixed liquid of 2-NBDG and 2-TRLG to cells, when 2-NBDG is specifically incorporated into the cells, green fluorescence is detected from the inside of the cells. […] Therefore, by detecting the green fluorescence emitted by 2-NBDG after the mixed liquid of 2-NBDG and 2-TRLG is administered to cells, the specific incorporation of D-glucose into cells relative to L-glucose can be accurately evaluated in real time.
Incidentally, the validity of this evaluation result is supported by the result that when the mixed solution of 20 μM 2-TRLG and 100 μM 2-NBDG is used, green fluorescence emitted by 2-NBDG can be detected by detecting fluorescence at around 540 nm, and red fluorescence emitted by 2-TRLG can be detected by detecting fluorescence at around 610 nm (in the case of pH 7.4, the maximum fluorescence wavelength of 2-NBDG is 540 nm, and the maximum fluorescence wavelength of 2-TRLG is 610 nm, see FIG. 4). […]

[4] = tested on: acutely isolated neurons; test: Application of mixed solution of 2-NBDG and 2-TRLG to acutely isolated neurons (real-time laser scanning confocal fluorescence microscope); type: cell-based, mouse; conditions: mixed solution of 20 μM 2-TRLG and 100 μM 2-NBDG administered for 1 minute, 24° C., image at 1 minute after stopping the administration
Description: The preparation of acutely isolated neurons was performed in the same manner as in Example 1.
Then, 10 μL of this 2 mM solution was dissolved in 1 mL of a glucose-free HEPES buffer solution^note 6) containing 100 μM 2-NBDG so as to dilute the 2 mM solution to 100-fold, whereby a mixed solution of 20 μM 2-TRLG and 100 μM 2-NBDG was obtained.
3 mL of a HEPES solution^note 2) was added to a 35-mm glass bottom culture dish^note 4) having a glass bottom to which neurons were adhered, and further 3 mL of mineral oil (M8410, Sigma CO., Ltd.) was laminated thereon. […]
A total of three detectors (channels): a photomultiplier detector for light in a green wavelength range (PMT1) and a photomultiplier detector for light in a red wavelength range (PMT2), and also a detector for transmitted light (PMTTrans) were used simultaneously, and 512×512 pixel images were captured. The detection sensitivity was set as follows: PMT1: 868 V, PMT2: 868 V, and PMTtrans: 245 V. Incidentally, the optimal values of the detection wavelength ranges of green fluorescence (500-580 nm) and red fluorescence (580-740 nm) were selected not on the basis of an emission filter system, but on the basis of a system using a prism spectroscope and a slit in combination (standard of TCS SP5, Leica, Inc.). […]

[5] = 2-NBDG, 2-TRLG and 2-NMALG mixed at 1:1:25 (molar ratio), excited by laser light at 405 nm (FIG. 6)

SMILES: O=[N+]([O-])c1ccc(NC2C(O)OC(CO)[C@H](O)C2O)c2nonc12 (stereo partly drawn) [2-NBDLG, 2-[N-(7-nitrobenz-2-oxa-1,3-diazol-4-yl)amino]-2-deoxy-L-glucose]
green fluorescence from the cell (incorporation into the cell) [1]: almost no green fluorescence from the cell was observed | difference in fluorescence detection between 2-NBDG and 2-NBDLG [2]: a difference in the result of the fluorescence detection for 2-NBDG and 2-NBDLG was not observed | fluorescence due to the incorporation into the cells [2]: could not be detected

maximum fluorescence wavelength [3, 5]: around 450 nm
SMILES: CNc1ccccc1C(=O)N[C@H](C=O)[C@H](O)[C@@H](O)[C@@H](O)CO [2-NMALG, 2-[N-2-(N′-methylamino)benzoylamino]-2-deoxy-L-glucose]

SMILES: O=[N+]([O-])c1ccc(NC2C(O)OC(CO)[C@@H](O)C2O)c2nonc12 (stereo partly drawn) [2-NBDG, 2-[N-(7-nitrobenz-2-oxa-1,3-diazol-4-yl)amino]-2-deoxy-D-glucose]
green fluorescence from the cell (incorporation into the cell) [1]: green fluorescence from the cell was observed | fluorescence based on incorporation into the cell [4]: only green fluorescence derived from 2-NBDG was observed | difference in fluorescence detection between 2-NBDG and 2-NBDLG [2]: a difference in the result of the fluorescence detection for 2-NBDG and 2-NBDLG was not observed | fluorescence due to the incorporation into the cells [2]: significant fluorescence due to the incorporation of 2-NBDG into the cells could be detected | maximum fluorescence wavelength [3, 5]: around 540 nm | maximum fluorescence wavelength ([3]; pH 7.4, mixed solution of 20 μM 2-TRLG and 100 μM 2-NBDG (FIG. 4)): 540 nm
